According to patent US20260356803A1, “Nicotinamide derivatives” (Board of Regents, The University of Texas System, priority 2024, published 2026):
Like-named read-outs stand apart in the source and are kept apart here.

Legend:
[1] = tested on: human MPNST cell line S462; assay: S462 cell viability (CellTiter-Glo, 72 h); format: cell-based; conditions: for IC50: read-out: IC50
Source text: This similarity, in addition to the scaffold's particular sensitivity to modifications around the pyridinyl ring led us to hypothesize that the activity of compounds 1 and 9 may depend on the concentration of Nam in the media. To test this hypothesis, we analyzed the activity of both compounds in media supplemented with increasing concentrations of Nam. […] Given that Nam inhibited compound activity, we considered Nam concentrations in basal culture conditions (DMEM supplemented with 10% fetal bovine serum or FBS) as compared to physiological levels. Nam levels in human serum are estimated to be in the 4 μM range.^5 In contrast, DMEM alone contains […] of Nam and the concentration in 10% FBS is expected to range between 0.574-1.56 μM.^6 To more closely reflect physiologic levels of Nam, we evaluated the activity of these compounds in cells grown in DMEM lacking Nam (Nam-free DMEM), so that the only exogenous Nam derives from 10% FBS. […] These observations indicate that the potency of these compounds is in the nanomolar range when tested in the presence of physiological levels of Nam.
We thus re-assessed the structure activity relationship of compound 21 analogs in Nam-free DMEM supplemented with or without 100 μM Nam (see appendix below: Synthesis, characterization and activity of micromolar and nanomolar active nicotinamide derivatives). […] Particularly notable, even in Nam-depleted conditions, all active analogs retained the same 3-pyridinyl ring as Nam, reinforcing the relationship between structural resemblance to Nam and compound efficacy.
In 96-well assay plates (Corning #2903), 2,000 cells were plated per well in 100 μL of medium and allowed to adhere overnight. The next day, compounds or Nam suspended in DMSO were dispensed to the assayed wells using a D300e Digital Dispenser (Tecan). All wells were normalized to 0.5% DMSO. 72 hours after incubation at 37 °C in 5% CO2, cell viability was assayed using an ATP-based luminescent viability assay, CellTiter-Glo (Promega #G8462). CellTiter-Glo substrate was mixed 1:1 with phosphate-buffered saline (PBS) supplemented with 1% Triton X-100, and 40 μL of this mixture was added to the assay wells. After the plates were shaken on a microplate shaker for 10 minutes at room temperature, luminescence was recorded using a Synergy 2 Microplate Reader or Cytation 5 plate reader (BioTek). In Prism 9 software (GraphPad), ten-point dose response curves were plotted with baseline-correction to the vehicle control well, and IC50 values were calculated by curve fitting using asymmetric (five parameter), least squares fit.

[2] = Mouse pharmacokinetics in plasma and brain; format: in vivo, CD1 mice; conditions: for Kp / Cmax: mouse; for Kp: read-out: brain to blood exposure (AUCBrain/AUCplasma)
Method: GBM, which is reported to be a potential target for these compounds, is an intracranial tumor, and thus, effective drugs must cross the blood-brain barrier. Therefore, in addition to plasma, we analyzed compound and metabolite levels in mouse brain. Following the administration of a single 5 mg/kg intravenous (IV) injection of either 1 or 9, we quantified the levels of each compound in both plasma and brain. […] The brain to blood exposure, represented by the ratio of the area under the curve between brain and plasma (AUCBrain/AUCplasma), was 3.45 for 1 and 2.85 for 9.
Next, we analyzed the levels of metabolites that result from the metabolism of 1 and 9 through the NAD salvage pathway.
MS conditions were identical. The HPLC conditions were as follows: Solvent A: water including 0.1% formic acid (LC-MS) grade. Solvent B: Acetonitrile including %0.1 formic acid (LC-MS) grade. Gradient condition was 0-3 min: 3% B, 17 min: 60.5% B, 17.1 min Flow to 0.25 mL/min, 17 to 20 min hold 95% B: 20.5-25 min hold 3% B, 24.5 flow to 0.2 mL/min. Total run time: 25 mins.
Data analysis for TOF data was performed using SCIEX MultiQuant software version 3.0.3. For each of the compounds monitored, the theoretical exact m/z was calculated. A range of ±10 ppm was extracted around the theoretical mass and used to create an analytical method in MultiQuant. Extracted areas for parent compounds 1 and 9 in S462 cells and mice were normalized to the internal standard tolbutamide, while parent compounds 1 and 9 in cell-free reactions and all metabolite levels were presented as peak areas without normalization.
Six week old female CD1 mice (Charles River, Wilmington, MA) were dosed with 5 mg/kg 1 or 9 formulated as 5% DMSO/10% PEG400/85% D5W (5% dextrose in water, pH 7.4) in a volume of 0.2 ml/mouse. Animals were euthanized by inhalation overdose of CO2 at various points postdose. Blood was collected by cardiac puncture into K2EDTA tubes and kept on ice until they were spun at 9600×g for 10 min at 4 °C for plasma. Brains were harvested, rinsed briefly with PBS to remove surface adhering blood, weighed and then snap frozen in liquid nitrogen before storing along with plasma at −80 °C until processing. Brains were homogenized in a volume of PBS equal to 3× their weight in g. One hundred microliters of plasma or brain homogenate was mixed with […] of methanol containing 0.15% formic acid and 37.5 ng/ml tolbutamide internal standard. Samples were vortexed for 15 seconds, incubated at RT for 10 min and then spun at 16,100×g. The resulting supernatant was spun a second time and then filtered through 0.2 μm PVDF filters and analyzed by LC-MS. Samples were quantitated in comparison to a standard curve prepared by spiking 1 or 9 into blank plasma or brain homogenate. The limit of quantitation was set as the lowest point on the standard curve that upon back-calculation was within 20% of the nominal value and was at least three-fold above the average peak area observed for blank plasma or brain. The LOQ for 1 was 1 ng/ml in plasma and 5 ng/ml in brain. The LOQ for 9 was 5 ng/ml in plasma and 10 ng/ml for brain homogenate. Brain concentrations were adjusted to ng/g wet tissue weight and then an estimate was made of drug in brain vasculature using the measured plasma concentration and subtracted from the measured brain concentration.^30 Pharmacokinetic parameters were calculated using the noncompartmental analysis tool with sparse sampling in Phoenix WinNonlin (Certara Corp, Princeton, NJ).

[3] = Nam titration experiment, media without added Nam
[4] = S462, commercial DMEM, highest dose tested 50 μM
[5] = addition of 100 μM exogenous Nam
[6] = brain, 5 mg/kg IV single dose, read-out: brain Cmax
[7] = brain, 5 mg/kg IV, assuming brain density of 1 g/ml, read-out: brain Cmax
[8] = plasma, 5 mg/kg IV single dose, molar, read-out: plasma maximum concentration (Cmax)
[9] = plasma, 5 mg/kg IV single dose, read-out: plasma maximum concentration (Cmax)

Structure (SMILES) | IC50 [1, 3] | IC50 [1, 4] | IC50 [1, 5] | IC50 ([1]; addition of 1 mM exogenous Nam) | brain penetration ([2]; 5 mg/kg IV) | persistence in brain versus plasma ([2]; 5 mg/kg IV) | Kp ([2]; brain, 5 mg/kg IV) | Cmax [2, 6] | Cmax [2, 7] | Cmax [2, 8] | Cmax [2, 9] | rapidly cleared from plasma by ([2]; plasma, 5 mg/kg IV) | other results
O=C(Nc1cccnc1)c1cccs1 [Compound 1, N-(pyridin-3-yl)thiophene-2-carboxamide] | 1960 nM | 1410 nM | 6850 nM | 32300 nM | brain-penetrant | persisted longer in the brain than in the plasma | 3.45 | 2220 ng/g | 10.8 µM | 5.65 µM | 1160 ng/mL | ≤ 90 min | –
O=C(Nc1cccs1)c1cccnc1 [Compound 9, N-(Thiophen-2-yl)nicotinamide] | 845 nM | 1200 nM | 4230 nM | 35700 nM | brain-penetrant | persisted longer in the brain than in the plasma | 2.85 | 1600 ng/g | 7.8 µM | 23.7 µM | 4830 ng/mL | ≤ 90 min | toxicity to S462 ([1]; 10% FBS Nam-free DMEM): toxic to S462; rescue by nicotinamide ([1]; 10% FBS Nam-free DMEM, comparison of vacor, 3-AP, tiazofurin and 9): rescued by nicotinamide; IC50 of 9 less than 3-AP ([1]; 10% FBS Nam-free DMEM, versus 3-AP): 1823 fold; IC50 of 9 less than tiazofurin ([1]; 10% FBS Nam-free DMEM, versus tiazofurin): 477 fold; IC50 of 9 less than vacor ([1]; 10% FBS Nam-free DMEM, versus vacor): 206 fold; potency increase in Nam-free DMEM ([1]; Nam-free DMEM versus basal medium): 92 fold; IC50 ([1]; Nam-free DMEM with 10% FBS): 9.17 nM; IC50 ([1]; Nam-free DMEM, addition of 1.4 μM Nam): 51.4 nM; IC50 ([1]; Nam-free DMEM, addition of 37 μM Nam): 1840 nM; average increase in IC50 on NMNAT1 knockout ([1]; S462, three independent NMNAT1 sgRNAs): 28.5 fold
